According to patent US6413764B1, “Human metabotropic glutamate receptors, nucleic acids encoding same and uses thereof” (Merck & Co., Inc., priority 1993, dated 2002):
Where two headings read alike, the source gives them in different places. Each block holds one molecule with its values, some of them ahead of it.

Experiments:
[1] = target: T1, human mGluR5a receptor (Homo sapiens, UniProt P41594); experiment: Automated fluorescence assay (fluo-3) in transiently transfected HEK 293 cells; format: cell-based; set-up: expressed in transfected cells; host or cells: HEK 293 cells, transient CaPO4 transfection
T1 sequence (P41594 21-1180 isoform P41594-2 limits assumed): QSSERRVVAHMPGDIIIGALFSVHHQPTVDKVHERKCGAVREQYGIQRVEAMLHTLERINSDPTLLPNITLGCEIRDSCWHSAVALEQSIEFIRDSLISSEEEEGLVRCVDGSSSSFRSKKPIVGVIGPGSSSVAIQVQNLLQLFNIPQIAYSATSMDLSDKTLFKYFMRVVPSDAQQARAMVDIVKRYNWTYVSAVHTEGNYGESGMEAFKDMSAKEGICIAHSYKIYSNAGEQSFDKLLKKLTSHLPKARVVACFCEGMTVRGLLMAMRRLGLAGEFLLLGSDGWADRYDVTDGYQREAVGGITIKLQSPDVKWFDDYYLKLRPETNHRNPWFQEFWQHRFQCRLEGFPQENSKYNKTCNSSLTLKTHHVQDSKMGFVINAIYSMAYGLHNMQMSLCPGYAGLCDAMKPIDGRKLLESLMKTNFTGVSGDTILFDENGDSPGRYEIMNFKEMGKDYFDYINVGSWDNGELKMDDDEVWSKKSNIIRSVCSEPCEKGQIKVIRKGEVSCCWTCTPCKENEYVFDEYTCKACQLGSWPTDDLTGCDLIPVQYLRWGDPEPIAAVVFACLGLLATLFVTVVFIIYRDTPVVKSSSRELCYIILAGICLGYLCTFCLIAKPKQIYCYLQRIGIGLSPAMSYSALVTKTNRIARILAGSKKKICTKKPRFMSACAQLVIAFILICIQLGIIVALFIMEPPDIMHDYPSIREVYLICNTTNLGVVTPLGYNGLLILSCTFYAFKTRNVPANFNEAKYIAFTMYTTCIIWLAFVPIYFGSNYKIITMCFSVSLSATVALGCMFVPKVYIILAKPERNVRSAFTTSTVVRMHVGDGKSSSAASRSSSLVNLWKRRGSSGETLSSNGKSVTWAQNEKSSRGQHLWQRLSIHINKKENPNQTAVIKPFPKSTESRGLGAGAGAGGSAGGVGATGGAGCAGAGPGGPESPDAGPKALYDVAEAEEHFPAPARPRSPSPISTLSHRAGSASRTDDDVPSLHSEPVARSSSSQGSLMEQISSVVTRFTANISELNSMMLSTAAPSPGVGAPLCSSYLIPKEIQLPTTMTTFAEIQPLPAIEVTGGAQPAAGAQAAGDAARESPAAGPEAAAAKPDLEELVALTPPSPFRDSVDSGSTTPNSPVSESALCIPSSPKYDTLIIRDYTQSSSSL
Description: HEK 293 cells were transiently transfected with DNA encoding mGluR5a (constructs mGluR5a2 and mGluR5a3 and construct MMTV-hmGluR5a) receptors. Approximately 2×10^6 HEK cells were transiently transfected with 5-18 μg (or 0.18 μg in some transfections, see Example 3.C.2.) of the indicated plasmid according to standard CaPO4 transfection procedures [see Wigler et al. (1979) Proc. Natl. Acad. Sci. USA 76:1373-1376]. In addition, 0.5-2 μg (or 0.18 μg in some transfections, see Example 3.C.2) of plasmid pCMVβgal (Clontech Laboratories, Palo Alto, Calif.), which contains the Escherichia coli β-galactosidase gene fused to the CMV promoter, were co-transfected as a reporter gene for monitoring the efficiency of transfection. The transfectants were analyzed for β-galactosidase expression by direct staining of the product of a reaction involving β-galactosidase and the X-gal substrate [Jones (1986) EMBO 5:3133-3142]. Transfectants can also be analyzed for β-galactosidase expression by measurement of β-galactosidase activity [Miller (1972) in Experiments in Molecular Genetics, pp.352-355, Cold Spring Harbor Press].
HEK 293 cells that were transiently transfected with 5 μg of MMTV-hmGluR5A were co-transfected with 5 μg of pRShGR (ATCC accession no. 67200) which contains DNA encoding a glucocorticoid receptor operatively linked to the Rous Sarcoma virus (RSV) LTR promoter. Co-expression of glucocorticoid receptors in these cells should insure that induction of expression of the MMTV promoter-mGluR5a DNA occurs upon addition of glucocorticoid (e.g., dexamethasone) to the cells.
Untransfected HEK 293 cells (or HEK 293 cells transiently transfected with pCMV-T7-3) and HEK 293 cells that had been transfected with mGluR5a-encoding DNA were plated in the wells of a 96-well microtiter dish (Nunc Catalog No. 1-6708, distributed by Alameda Industries, Escondido, Calif.) that had been precoated with poly-L-lysine at a density of 2×10^5 cells/well and loaded with fluo-3 by incubation for 2 hours at 20° C. in a medium containing 20 μM fluo-3, 0.2% Pluronic F-127 in HBS (125 mM NaCl, 5 mM KCl, 1.8 mM CaCl2, 0.62 MM MgCl2, 20 mM glucose, 20 mM HEPES, pH 7.4). The cells were then washed with assay buffer (i.e. HBS). The microtiter dish was then placed into a fluorescence plate reader (e.g., Fluoroskan II, Lab Products International, Ltd., Raleigh, N.C.), and the basal fluorescence of each well was measured and recorded before addition of metabotropic receptor-modulating compounds such as quisqualate, glutamate, trans-ACPD (1-amino-cyclopentane-1,3-dicarboxylic acid), 1S,3R-ACPD, AP3 (2-amino-3-phosphonopropionate) AP5 (2-amino-5-phosphonopentanoate), and CNQX (6-cyano-7-nitroquinoxaline-2,3-dione) to the wells. The fluorescence of the wells was monitored repeatedly (75 readings at 0.63-sec intervals) following addition of agonist.

[2] = system: untransfected HEK 293 cells; experiment: Fluorescence imaging assay (fura-2), untransfected control cells; format: cell-based, human; conditions: 100 μM, on average
Description: (§1) HEK 293 cells that had been transiently transfected with mGluR5a3 and untransfected HEK 293 cells (control) were analyzed by digital video imaging in order to visualize metabotropic receptor-mediated changes in intracellular Ca^++ concentration. Transfectants (4×10^5 cells per 35-mm culture dish with glass-insert bottom) were loaded with fura-2 by exposing the cells to 1 μM fura-2 (acetoxymethyl ester) for 25 min at room temperature in the dark. The cells were then washed three times with DMEM and four times with Ringer's (160 mM NaCl, 5 mM KCl, 2 mM CaCl2, 1 mM MgCl2, 11 mM glucose, 5 mM HEPES, pH 7.3) solution.
(§2) The transfectants and untransfected cells were then placed on the stage of an Axiovert 100 TV inverted microscope (Zeiss, Oberkochren, Germany) equipped with a 150 W xenon lamp as the UV light source. […]
(§3) The uncalibrated fura-2 ratios were used to generate pseudocolor images with purple corresponding to resting intracellular Ca^++ concentration (˜100 nM) and red to high intracellular Ca^++ concentration (˜1 μM). For quantitative analysis, the average ratio value in a 12-by-12 pixel region over each cell was calculated by the software for each ratio image in an experiment and imported into a spreadsheet for further analysis and graphing.

[3] = target: T1, human mGluR5a receptor; experiment: Fluorescence imaging assay (fura-2) in HEK 293 cells transiently transfected with mGluR5a3; format: cell-based; set-up: expressed in transfected cells; host or cells: HEK 293 cells, transient CaPO4 transfection; conditions: 100 μM; HEK 293 transiently transfected with mGluR5a3
Description: as §1, §2, §3

[4] = HEK 293 transiently transfected with mGluR5a3 or MMTV-hmGluR5a, fluo-3
[5] = cells transfected with mGluR5a3, varying amounts of compound

Compound: NC1(C(=O)O)CCC(C(=O)O)C1 (stereo not drawn) [1S,3R-ACPD, 1-amino-cyclopentyl-1,3-dicarboxylic acid]
fluorescence change in response to application of compound [1, 4]: increased
dose-response of peak fluorescence [1, 5]: magnitude of the peak fluorescence increased with increasing concentration

fluorescence change in response to application of compound [1, 4]: increased
Compound: N[C@@H](CCC(=O)O)C(=O)O [glutamate]
dose-response of peak fluorescence [1, 5]: magnitude of the peak fluorescence increased with increasing concentration

Compound: N[C@@H](Cn1oc(=O)[nH]c1=O)C(=O)O [quisqualate]
intracellular Ca++ concentration change [2]: did not change
dose-response of peak fluorescence [1]: magnitude of the peak fluorescence increased with increasing concentration
fluorescence change in response to application of compound [1]: increased
fluorescence change in response to compound [1]: increased
transfected cells whose intracellular Ca++ concentration increased [3]: 26.7±22.3%
